Our source for the IC50 values is US9737542B2, “Pyrrolotriazine kinase inhibitors” (BRISTOL-MYERS SQUIBB COMPANY, priority 2013, dated 2017).

Sequence of GST-Xa-hAAK1 (Q2M2I8 whole entry): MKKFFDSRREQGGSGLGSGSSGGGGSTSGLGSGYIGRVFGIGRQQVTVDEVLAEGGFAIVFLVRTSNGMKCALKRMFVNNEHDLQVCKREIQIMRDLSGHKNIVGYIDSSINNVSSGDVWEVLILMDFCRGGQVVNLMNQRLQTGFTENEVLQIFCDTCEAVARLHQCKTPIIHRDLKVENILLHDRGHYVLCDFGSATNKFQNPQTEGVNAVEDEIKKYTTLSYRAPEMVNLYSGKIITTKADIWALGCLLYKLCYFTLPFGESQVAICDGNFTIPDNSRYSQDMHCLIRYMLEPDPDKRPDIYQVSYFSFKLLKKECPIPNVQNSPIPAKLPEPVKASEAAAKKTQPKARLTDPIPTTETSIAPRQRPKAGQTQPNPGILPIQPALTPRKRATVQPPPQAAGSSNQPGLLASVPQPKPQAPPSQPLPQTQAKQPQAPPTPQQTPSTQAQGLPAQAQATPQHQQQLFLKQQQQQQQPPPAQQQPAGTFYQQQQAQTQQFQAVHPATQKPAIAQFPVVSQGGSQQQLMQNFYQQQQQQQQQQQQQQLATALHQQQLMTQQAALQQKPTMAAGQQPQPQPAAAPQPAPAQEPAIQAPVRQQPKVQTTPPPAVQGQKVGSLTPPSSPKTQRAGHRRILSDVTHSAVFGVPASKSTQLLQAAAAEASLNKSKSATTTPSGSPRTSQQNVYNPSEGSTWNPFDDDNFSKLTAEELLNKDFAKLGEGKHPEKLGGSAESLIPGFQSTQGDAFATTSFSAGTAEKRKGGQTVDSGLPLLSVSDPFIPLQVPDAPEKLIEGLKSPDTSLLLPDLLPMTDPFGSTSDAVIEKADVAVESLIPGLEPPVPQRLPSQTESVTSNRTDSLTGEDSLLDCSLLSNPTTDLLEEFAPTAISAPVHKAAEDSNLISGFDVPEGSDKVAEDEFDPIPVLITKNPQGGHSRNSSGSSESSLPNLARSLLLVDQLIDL

The first experiment has as its target GST-Xa-hAAK1 (Homo sapiens (Human), UniProt Q2M2I8). The experiment is described as follows: AAK1 Kinase Assay. The experiment is classed as biochemical. As to conditions: ATP 22 μM; 3 hours at room temperature.
In the case of `CC(C)n1nnc(-c2cccc(Nc3ncnn4ccc(CN5CCC(N)CC5)c34)c2)n1` [Example 8, 5-((4-aminopiperidin-1-yl)methyl)-N-(3-(2-isopropyl-2H-tetrazol-5-yl)phenyl)pyrrolo[2,1-f][1,2,4]triazin-4-amine], the IC50 (usually the concentration that inhibits the measured activity by half) came out at 7.3 nM.

`Cn1ccc(-c2cccc(Nc3ncnn4ccc(CN5CCC(N)CC5)c34)c2)n1` [Example 12, 5-((4-aminopiperidin-1-yl)methyl)-N-(3-(1-methyl-1H-pyrazol-3-yl)phenyl)pyrrolo[2,1-f][1,2,4]triazin-4-amine] came in with an IC50 of 446 nM.

`Cc1nnc(-c2cccc(Nc3ncnn4ccc(CN5CC(N)C5)c34)c2)s1` [Example 19, 5-((3-aminoazetidin-1-yl)methyl)-N-(3-(5-methyl-1,3,4-thiadiazol-2-yl)phenyl)pyrrolo[2,1-f][1,2,4]triazin-4-amine] had an IC50 of 2120 nM.

With `NC1CCN(Cc2ccn3ncnc(Nc4cccc(-c5noc(C6CCCCC6)n5)c4)c23)CC1` [Example 22, 5-((4-aminopiperidin-1-yl)methyl)-N-(3-(5-cyclohexyl-1,2,4-oxadiazol-3-yl)phenyl)pyrrolo[2,1-f][1,2,4]triazin-4-amine], the midpoint of inhibition, the IC50, lay at 14 nM.

The same experiment, now with this note: ATP 22 μM; 3 hours at room temperature; listed as IC50 ranges.
`NC1CCN(Cc2ccn3ncnc(Nc4cccc(-c5cnco5)c4)c23)CC1` [Example 1, 5-((4-aminopiperidin-1-yl)methyl)-N-(3-(oxazol-5-yl)phenyl)pyrrolo[2,1-f][1,2,4]triazin-4-amine] registered an IC50 of 100 to 1000 nM.

Compound `CC(C)c1nc(-c2cccc(Nc3ncnn4ccc(CN5CCC(N)CC5)c34)c2)no1` [Example 2, 5-((4-aminopiperidin-1-yl)methyl)-N-(3-(5-isopropyl-1,2,4-oxadiazol-3-yl)phenyl)pyrrolo[2,1-f][1,2,4]triazin-4-amine] gave an IC50 of 10 to 100 nM.

Compound `CC(C)c1nc(-c2ccc(O)c(Nc3ncnn4ccc(CN5CCC(N)CC5)c34)c2)no1` [Example 3, 2-((5-((4-aminopiperidin-1-yl)methyl)pyrrolo[2,1-f][1,2,4]triazin-4-yl)amino)-4-(5-isopropyl-1,2,4-oxadiazol-3-yl)phenol] returned an IC50 of 10 to 100 nM.

As to `C=Cc1cccc(Nc2ncnn3ccc(CN4CCC(N)CC4)c23)c1` [Example 4, 5-((4-aminopiperidin-1-yl)methyl)-N-(3-vinylphenyl)pyrrolo[2,1-f][1,2,4]triazin-4-amine], the IC50 was in the range of 100 to 1000 nM.

The compound `CC(C)(C)c1nc(-c2cccc(Nc3ncnn4ccc(CN5CCC(N)CC5)c34)c2)no1` [Example 5, 5-((4-aminopiperidin-1-yl)methyl)-N-(3-(5-(tert-butyl)-1,2,4-oxadiazol-3-yl)phenyl)pyrrolo[2,1-f][1,2,4]triazin-4-amine] gave an IC50 of 10 to 100 nM.

`CCC(C)(C)c1nc(-c2cccc(Nc3ncnn4ccc(CN5CCC(N)CC5)c34)c2)no1` [Example 6, 5-((4-aminopiperidin-1-yl)methyl)-N-(3-(5-(tert-pentyl)-1,2,4-oxadiazol-3-yl)phenyl)pyrrolo[2,1-f][1,2,4]triazin-4-amine]: the IC50 was in the range of 10 to 100 nM.

Compound `NC1CCN(Cc2ccn3ncnc(Nc4cc(O)cc(-c5ncco5)c4)c23)CC1` [Example 7, 3-((5-((4-aminopiperidin-1-yl)methyl)pyrrolo[2,1-f][1,2,4]triazin-4-yl)amino)-5-(oxazol-2-yl)phenol] gave an IC50 of 100 to 1000 nM.

In turn, `CC(C)c1nnc(-c2cccc(Nc3ncnn4ccc(CN5CCC(N)CC5)c34)c2)s1` [Example 9, 5-((4-aminopiperidin-1-yl)methyl)-N-(3-(5-isopropyl-1,3,4-thiadiazol-2-yl)phenyl)pyrrolo[2,1-f][1,2,4]triazin-4-amine] displayed an IC50 of 10 to 100 nM.

Compound `CC(C)(CO)c1nc(-c2cccc(Nc3ncnn4ccc(CN5CCC(N)CC5)c34)c2)no1` [Example 10, 2-(3-(3-((5-((4-aminopiperidin-1-yl)methyl)pyrrolo[2,1-f][1,2,4]triazin-4-yl)amino)phenyl)-1,2,4-oxadiazol-5-yl)-2-methylpropan-1-ol] returned an IC50 of 10 to 100 nM.

In turn, `NC1CCN(Cc2ccn3ncnc(Nc4cccc(-c5noc(CCl)n5)c4)c23)CC1` [Example 11, 5-((4-aminopiperidin-1-yl)methyl)-N-(3-(5-(chloromethyl)-1,2,4-oxadiazol-3-yl)phenyl)pyrrolo[2,1-f][1,2,4]triazin-4-amine] displayed an IC50 of 100 to 1000 nM.

On to `Cc1nc(-c2cccc(Nc3ncnn4ccc(CN5CCC(N)CC5)c34)c2)no1` [Example 13, 5-((4-aminopiperidin-1-yl)methyl)-N-(3-(5-methyl-1,2,4-oxadiazol-3-yl)phenyl)pyrrolo[2,1-f][1,2,4]triazin-4-amine], for which the IC50 lay in the range of 100 to 1000 nM.

Compound `NC1CCN(Cc2ccn3ncnc(Nc4cccc(-c5csnn5)c4)c23)CC1` [Example 14, N-(3-(1,2,3-thiadiazol-4-yl)phenyl)-5-((4-aminopiperidin-1-yl)methyl)pyrrolo[2,1-f][1,2,4]triazin-4-amine] registered an IC50 of 100 to 1000 nM.

`CCc1nnc(-c2cccc(Nc3ncnn4ccc(CN5CCC(N)CC5)c34)c2)[nH]1` [Example 15, 5-((4-aminopiperidin-1-yl)methyl)-N-(3-(5-ethyl-4H-1,2,4-triazol-3-yl)phenyl)pyrrolo[2,1-f][1,2,4]triazin-4-amine] came in with an IC50 of 10 to 100 nM.

Consider `NC1CCN(Cc2ccn3ncnc(Nc4cccc(-c5nc(-c6ccccc6)no5)c4)c23)CC1` [Example 16, 5-((4-aminopiperidin-1-yl)methyl)-N-(3-(3-phenyl-1,2,4-oxadiazol-5-yl)phenyl)pyrrolo[2,1-f][1,2,4]triazin-4-amine], for which the IC50 lay in the range of 100 to 1000 nM.

Consider `Cc1nnc(-c2cccc(Nc3ncnn4ccc(CN5CCC(N)CC5)c34)c2)s1` [Example 17, 5-((4-aminopiperidin-1-yl)methyl)-N-(3-(5-methyl-1,3,4-thiadiazol-2-yl)phenyl)pyrrolo[2,1-f][1,2,4]triazin-4-amine], for which the IC50 fell in the range of 100 to 1000 nM.

`CNC1CCN(Cc2ccn3ncnc(Nc4cccc(-c5nnc(C)s5)c4)c23)CC1` [Example 18, N-(3-(5-methyl-1,3,4-thiadiazol-2-yl)phenyl)-5-((4-(methylamino)piperidin-1-yl)methyl)pyrrolo[2,1-f][1,2,4]triazin-4-amine] registered an IC50 of 100 to 1000 nM.

In turn, `Cc1nnc(-c2cccc(Nc3ncnn4ccc(CN5CC6CNCC6C5)c34)c2)s1` (centres unmarked) [Example 20, 5-((hexahydropyrrolo[3,4-c]pyrrol-2(1H)-yl)methyl)-N-(3-(5-methyl-1,3,4-thiadiazol-2-yl)phenyl)pyrrolo[2,1-f][1,2,4]triazin-4-amine] came in with an IC50 of 1000 to 5000 nM.

Regarding `CCCc1nnc(-c2cccc(Nc3ncnn4ccc(CN5CCC(N)CC5)c34)c2)s1` [Example 21, 5-((4-aminopiperidin-1-yl)methyl)-N-(3-(5-propyl-1,3,4-thiadiazol-2-yl)phenyl)pyrrolo[2,1-f][1,2,4]triazin-4-amine], the IC50 lay within 10 to 100 nM.

`NC1CCN(Cc2ccn3ncnc(Nc4cccc(-c5nnc(C6CC6)s5)c4)c23)CC1` [Example 23, 5-((4-aminopiperidin-1-yl)methyl)-N-(3-(5-cyclopropyl-1,3,4-thiadiazol-2-yl)phenyl)pyrrolo[2,1-f][1,2,4]triazin-4-amine] gave an IC50 of 100 to 1000 nM.

`CNC1CCN(Cc2ccn3ncnc(Nc4cccc(-c5nnc(C6CC6)s5)c4)c23)CC1` [Example 24, N-(3-(5-cyclopropyl-1,3,4-thiadiazol-2-yl)phenyl)-5-((4-(methylamino)piperidin-1-yl)methyl)pyrrolo[2,1-f][1,2,4]triazin-4-amine] returned an IC50 of 10 to 100 nM.

`NC1CN(Cc2ccn3ncnc(Nc4cccc(-c5nnc(C6CC6)s5)c4)c23)C1` [Example 25, 5-((3-aminoazetidin-1-yl)methyl)-N-(3-(5-cyclopropyl-1,3,4-thiadiazol-2-yl)phenyl)pyrrolo[2,1-f][1,2,4]triazin-4-amine] registered an IC50 of 100 to 1000 nM.

`c1cc(Nc2ncnn3ccc(CN4CC5CNCC5C4)c23)cc(-c2nnc(C3CC3)s2)c1` (centres unmarked) [Example 26, N-(3-(5-cyclopropyl-1,3,4-thiadiazol-2-yl)phenyl)-5-((hexahydropyrrolo[3,4-c]pyrrol-2(1H)-yl)methyl)pyrrolo[2,1-f][1,2,4]triazin-4-amine] returned an IC50 of 100 to 1000 nM.

For `CNC1CCN(Cc2ccn3ncnc(Nc4cccc(-c5nnc(C(C)C)s5)c4)c23)CC1` [Example 27, N-(3-(5-isopropyl-1,3,4-thiadiazol-2-yl)phenyl)-5-((4-(methylamino)piperidin-1-yl)methyl)pyrrolo[2,1-f][1,2,4]triazin-4-amine], the IC50 lay within 100 to 1000 nM.

Regarding `CC(C)c1nnc(-c2cccc(Nc3ncnn4ccc(CN5CC(N)C5)c34)c2)s1` [Example 28, 5-((3-aminoazetidin-1-yl)methyl)-N-(3-(5-isopropyl-1,3,4-thiadiazol-2-yl)phenyl)pyrrolo[2,1-f][1,2,4]triazin-4-amine], the IC50 is 100 to 1000 nM.

In turn, `CC(C)c1nnc(-c2cccc(Nc3ncnn4ccc(CN5CC6CNCC6C5)c34)c2)s1` (centres unmarked) [Example 29, 5-((hexahydropyrrolo[3,4-c]pyrrol-2(1H)-yl)methyl)-N-(3-(5-isopropyl-1,3,4-thiadiazol-2-yl)phenyl)pyrrolo[2,1-f][1,2,4]triazin-4-amine] had an IC50 of 100 to 1000 nM.

For the compound `CNC1CCN(Cc2ccn3ncnc(Nc4cccc(-c5nnc(C(C)C)s5)c4)c23)C1` (centres unmarked) [Example 30, N-(3-(5-isopropyl-1,3,4-thiadiazol-2-yl)phenyl)-5-((3-(methylamino)pyrrolidin-1-yl)methyl)pyrrolo[2,1-f][1,2,4]triazin-4-amine], the IC50 lay within 100 to 1000 nM.

Consider `CC(C)c1nnc(-c2cccc(Nc3ncnn4ccc(CN5CCC(CN)C5)c34)c2)s1` (centres unmarked) [Example 31, 5-((3-(aminomethyl)pyrrolidin-1-yl)methyl)-N-(3-(5-isopropyl-1,3,4-thiadiazol-2-yl)phenyl)pyrrolo[2,1-f][1,2,4]triazin-4-amine], for which the IC50 is 100 to 1000 nM.

Consider `CC(C)c1nnc(-c2cccc(Nc3ncnn4ccc(CN5CCC(N)C5)c34)c2)s1` (centres unmarked) [Example 32, 5-((3-aminopyrrolidin-1-yl)methyl)-N-(3-(5-isopropyl-1,3,4-thiadiazol-2-yl)phenyl)pyrrolo[2,1-f][1,2,4]triazin-4-amine], for which the IC50 lay within 100 to 1000 nM.
